Results taken from patent US6743609B1, “Linoleate isomerase” (Arkion Life Sciences LLC, priority 1997, dated 2004).

Key:
[1] = test system: P. acnes ATCC 6919 linoleate isomerase; experiment: Effect of cofactors, metals, chelators and sulfhydryl reagents on isomerase activity of crude soluble enzyme preparation; type: biochemical, Propionibacterium acnes; conditions: for effect of possible cofactor on isomerase activity: 60 minute assays
Protocol: A number of possible cofactors were tested for their effect on isomerase activity, including NAD, NADH, NADP, NADPH, FAD, FMN, ADP, ATP and glutathione.
(§1) Generally, the isomerase was assayed using an endpoint assay after 30 to 60 minutes incubation at room temperature. FIG. 18 (time course assay at different linoleic acid levels) and FIG. 19 (end point assay at different linoleic acid levels) show the effect of increasing substrate concentration on formation of […].

[2] = test system: Lactobacillus reuteri PYR8 9,11 linoleate isomerase (whole cells); experiment: Whole-cell biotransformation of linoleic acid, effect of product and substrate on isomerase; type: cell-based; conditions: 700 ppm CLA from recycled reaction broth, 1000 ppm linoleic acid
Text: The following example describes the determination of conditions to improve enzyme stability and performance and on testing the limitations of the biotransformation process. Whole cells of L. reuteri PYR8 were used in all biotransformation experiments described below.
The effect of substrate and product on the enzyme performance was also investigated, as well as the possibility of recycling the cells. The effect of CLA on the reaction was studied by adding different concentrations of either a mixture of isomers (Sigma material, approximately 41% 9,11 isomer and 48% 10,12 CLA), or just 9,11 CLA (Matreya material, approximately 77% 9,11 CLA). Concentrations from 500 to 3000 ppm were tested. Some experiments were also performed recycling the broth from a previous biotransformation reaction with L. reuteri PYR8, resulting in an initial CLA concentration around 700 ppm. In every case, 1000 ppm linoleic acid were added. […] In the same period, almost complete conversion of the linoleic acid was obtained in the control without exogenous CLA. However, the effect was not detected when the CLA present came from recycled reaction broth. […] The results may indicate that some of the impurities present in the chemically produced CLA may be stronger inhibitors of the 9,11 isomerase than the product itself. […]

[3] = test system: C. sporogenes ATCC 25762 linoleate isomerase; experiment: Effect of additives, buffer components and detergents on C. sporogenes isomerase activity; type: biochemical, Clostridium sporogenes
Protocol: It has been reported that solubilization in the presence of lysophosphatidylcholine (LPC) allows higher detergent concentrations to be used, thus allowing more complete membrane protein solubilization. CaCl2 can activate enzymes, such as some nucleases.
A third nonionic detergent, octyl glucoside (OG) was tested for its ability to solubilize the C. sporogenes linoleate isomerase.

L. reuteri PYR8 = experiment: Whole cell biotransformation of linoleic acid to CLA; type: cell-based, Lactobacillus reuteri; conditions: for (cis,trans)-9,11-CLA formation on addition of nonionic detergent: detergents added to 0.1-0.5% final concentration
Protocol: Cultures were grown and harvested as described above. Washed cells were resuspended in either fresh growth medium or 0.1 M Tris pH 8.0 buffer containing linoleic acid at various concentrations.
Samples were taken at appropriate intervals and analyzed for CLA as described in Example 2. In some experiments, various detergents were added to 0.1-0.5% final concentration. […] About 5 mL solvent was added to about 20 mL aqueous cell suspension in a 125 mL baffled shake flask incubated at room temperature.
Linoleic acid was added as 99% LA, dissolved in propyleneglycol (100 mg/ml solution) or emulsified with 0.5, 5 or 30% lecithin. The emulsion was prepared by blending the linoleic acid and the lecithin with the reaction medium before the addition of the cells. Linoleic acid was added at 1000 and 2000 ppm.
In the second experiment, cell recycle was studied with cells that have performed the biotransformation at different levels of linoleic acid. Cells were harvested, resuspended in breakage buffer at a 10-fold concentration, and linoleic acid was added at 1000, 1500, 2000, 2500 and 3000 ppm level. Given the higher linoleic acid concentration, the reaction was allowed to proceed for six hours. […] 1000 ppm linoleic acid were added and the reaction was followed for four hours.

9,11 linoleate isomerase = experiment: Test of possible inducers of the 9,11 linoleate isomerase in the growth medium; type: cell-based, Lactobacillus reuteri; conditions: 100 mg/l in the growth medium
Protocol: Several substances were tested as possible inducers of the 9,11 linoleate isomerase. The materials tested included: lauric acid, myristic acid, palmitic acid, palmitoleic acid, oleic acid, linoleic acid, linolenic acid, oleic acid stearyl ester, linoleyl alcohol, linoleic acid methyl ester, linoleic acid ethyl ester, stearic acid and linoleic acid methyl ester. They were added to the growth medium at a 100 mg/l level.

linoleate isomerase = type: biochemical; conditions: pH optimum of about 7.5
[4] = target: T1, Propionibacterium acnes ATCC 6919 linoleate isomerase (10,12-linoleate isomerase) (Cutibacterium acnes, UniProt Q6A8X5); experiment: Linoleate isomerase activity in crude soluble extract, effect of cofactors, chelators, sulfhydryl reagents and substrate level; type: biochemical; conditions: increasing linoleic acid levels, FIGS. 18 and 19
T1 construct: gene not cloned in this document
Protocol: (§2) About 50 to about 250 μL of enzyme sample was added to 1.5 mL of enzyme assay buffer for reaction. About 1 to about 2 mL of aqueous phase was separated from the enzyme reaction and was extracted with about 3 mL of hexane. […] Depending on the level of activity, assay mixtures of chromatography fractions were incubated at room temperature from about 1 to about 24 hours before extraction with hexane.
Enzyme extracts were prepared by French Press and the extract fractionated as outlined in FIG. 15. Taking the total isomerase activity in fraction A as 100%, over 93% of the activity was detected in the soluble protein fraction (B) Less than 1% of the isomerase activity was found in the washed pellet, or membrane fraction (C). Approximately 2% of the activity was located in the buffer fraction (D), after the pellet washing and centrifugation steps. Thus, the P. acnes isomerase clearly is not a membrane protein, unlike the isomerase activities in L. reuteri PYR8 and other strains examined to date.
Calcium and magnesium also had no effect.
as §1

[5] = test system: isolated linoleate isomerase (source organism not stated with the values); experiment: Michaelis-Menten kinetics of isolated linoleate isomerase (linoleic acid substrate, oleic acid inhibition)
[6] = test system: Clostridium sporogenes ATCC 25762 linoleate isomerase; experiment: Linoleate isomerase activity versus linoleic acid concentration; type: biochemical; conditions: tested from 0 to 100 ppm, FIG. 26
Protocol: as §2
Temperature optimization with crude extracts was carried out at 4° C., room temperature (˜25° C.) and 37° C. The best temperature for the isomerase activity was room temperature (FIG. 25). The isomerase activity decreased to 73% of optimum at 4° C. and 63% of optimum at 37° C.
The concentration of linoleic acid was tested from 0 to 100 ppm (FIG. 26). The optimum concentration for linoleic add was determined to be 40 ppm.

T1 sequence (Q6A8X5 entry or part of it): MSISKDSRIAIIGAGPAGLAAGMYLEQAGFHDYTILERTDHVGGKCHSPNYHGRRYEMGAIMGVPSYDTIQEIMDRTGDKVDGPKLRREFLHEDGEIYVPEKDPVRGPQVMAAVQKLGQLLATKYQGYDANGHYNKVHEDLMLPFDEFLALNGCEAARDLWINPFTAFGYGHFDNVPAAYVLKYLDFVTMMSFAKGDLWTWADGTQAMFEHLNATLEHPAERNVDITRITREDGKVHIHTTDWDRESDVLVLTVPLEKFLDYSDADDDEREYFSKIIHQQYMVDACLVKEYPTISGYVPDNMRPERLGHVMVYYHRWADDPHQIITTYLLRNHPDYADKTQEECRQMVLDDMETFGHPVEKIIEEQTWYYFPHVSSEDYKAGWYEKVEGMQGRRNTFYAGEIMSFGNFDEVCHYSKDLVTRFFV

Compound: c1cnc2c(c1)ccc1cccnc12 [1,10-phenanthroline]
- inhibition of isomerase activity ([1]; 1 mM): not inhibited

Compound: Nc1ncnc2c1ncn2[C@@H]1O[C@H](COP(=O)(O)OP(=O)(O)O)[C@@H](O)[C@H]1O [ADP]
- effect of possible cofactor on isomerase activity [1]: No significant effect

Compound: CCCCCC/C=C/C=C\CCCCCCCC(=O)O [CLA]
- effect of CLA from recycled reaction broth on conversion rate [2]: no difference in conversion rate

Compound: [Ca+2].[Cl-].[Cl-] [CaCl2]
- effect on enzyme activity ([3]; Tris and phosphate buffer systems): decreased the enzyme activity
- effect on enzyme activity ([3]; temperatures higher than 37° C.): no effect on the activity

Compound: [Ca] [Calcium]
- effect of metal on isomerase activity [1]: no effect

Compound: Cc1cc2nc3c(=O)[nH]c(=O)nc-3n(C[C@H](O)[C@H](O)[C@H](O)COP(=O)(O)OP(=O)(O)OC[C@H]3O[C@@H](n4cnc5c(N)ncnc54)[C@H](O)[C@@H]3O)c2cc1C [FAD]
- effect of possible cofactor on isomerase activity [1]: No significant effect

Compound: Cc1cc2nc3c(=O)[nH]c(=O)nc-3n(C[C@H](O)[C@H](O)[C@H](O)COP(=O)(O)O)c2cc1C [FMN]
- effect of possible cofactor on isomerase activity [1]: No significant effect

Compound: CCN1C(=O)C=CC1=O [N-ethylmaleimide]
- inhibition of isomerase activity ([1]; 100 μM): not inhibited

Compound: NC(=O)C1=CN([C@@H]2O[C@H](COP(=O)(O)OP(=O)(O)OC[C@H]3O[C@@H](n4cnc5c(N)ncnc54)[C@H](O)[C@@H]3O)[C@@H](O)[C@H]2O)C=CC1 [NADH]
- effect of possible cofactor on isomerase activity [1]: No significant effect

Compound: NC(=O)C1=CN([C@@H]2O[C@H](COP(=O)(O)OP(=O)(O)OC[C@H]3O[C@@H](n4cnc5c(N)ncnc54)[C@H](OP(=O)(O)O)[C@@H]3O)[C@@H](O)[C@H]2O)C=CC1 [NADPH]
- effect of possible cofactor on isomerase activity [1]: No significant effect

Compound: NC(=O)c1ccc[n+]([C@@H]2O[C@H](COP(=O)([O-])OP(=O)(O)OC[C@H]3O[C@@H](n4cnc5c(N)ncnc54)[C@H](OP(=O)(O)O)[C@@H]3O)[C@@H](O)[C@H]2O)c1 [NADP]
- effect of possible cofactor on isomerase activity [1]: No significant effect

Compound: NC(=O)c1ccc[n+]([C@@H]2O[C@H](COP(=O)([O-])OP(=O)(O)OC[C@H]3O[C@@H](n4cnc5c(N)ncnc54)[C@H](O)[C@@H]3O)[C@@H](O)[C@H]2O)c1 [NAD]
- effect of possible cofactor on isomerase activity [1]: No significant effect

Compound: CCCCCCCCO[C@@H]1O[C@H](CO)[C@@H](O)[C@H](O)[C@H]1O [OG, octyl glucoside]
- isomerase specific activity higher than that of OTGP solubilized isomerase ([3]; 1.5% (2×critical micelle concentration)): about 20%

Compound: CCCCCCCC/C=C\CCCCCCCC(=O)OCCOCC(OCCO)C1OCC(OCCO)C1OCCO (stereo not shown) [Tween-80]
- (cis,trans)-9,11-CLA formation on addition of nonionic detergent (L. reuteri PYR8): does not significantly increase

Compound: N[C@@H](CCC(=O)N[C@@H](CS)C(=O)NCC(=O)O)C(=O)O [glutathione]
- effect of possible cofactor on isomerase activity [1]: No significant effect

Compound: OCC(O)CO [glycerol]
- increase in activity on increasing the concentration ([3]; extraction buffer): 30%

Compound: CCCCCCCCCCCC(=O)O [lauric acid]
- effect as inducer on expression and/or activity of the isomerase (9,11 linoleate isomerase): No positive effect

Compound: CCCCC/C=C\C/C=C\CCCCCCCC(=O)OCC [linoleic acid ethyl ester]
- effect as inducer on expression and/or activity of the isomerase (9,11 linoleate isomerase): No positive effect

Compound: CCCCC/C=C\C/C=C\CCCCCCCC(=O)OC [linoleic acid methyl ester]
- effect as inducer on expression and/or activity of the isomerase (9,11 linoleate isomerase): No positive effect

Compound: CCCCC/C=C\C/C=C\CCCCCCCC(=O)O [linoleic acid, (cis,cis)-9,12-linoleic acid]
- Km (linoleate isomerase; read-out: Km for linoleic acid): ~8.1 µM
- substrate inhibition by linoleic acid [4]: not subject to the same type of substrate inhibition
- substrate inhibition (L. reuteri PYR8; up to 3000 ppm linoleic acid, cells 10-fold concentrated in breakage buffer): no substrate inhibition was detected
- linoleic acid concentration at which initial velocity decreases [5]: about 60 μM
- optimum concentration for linoleic acid [6]: 40 ppm
- effect as inducer on expression and/or activity of the isomerase (9,11 linoleate isomerase): No positive effect

Compound: CCCCC/C=C\C/C=C\CCCCCCCCO [linoleyl alcohol]
- effect as inducer on expression and/or activity of the isomerase (9,11 linoleate isomerase): No positive effect

Compound: [Mg] [magnesium]
- effect of metal on isomerase activity [1]: no effect

Compound: CCCCCCCCCCCCCC(=O)O [myristic acid]
- effect as inducer on expression and/or activity of the isomerase (9,11 linoleate isomerase): No positive effect

Compound: CCCCCCCC/C=C\CCCCCCCC(=O)OCCCCCCCCCCCCCCCCCC [oleic acid stearyl ester]
- effect as inducer on expression and/or activity of the isomerase (9,11 linoleate isomerase): No positive effect

Compound: CCCCCCCC/C=C\CCCCCCCC(=O)O [oleic acid]
- Ki (linoleate isomerase; read-out: Ki for oleic acid): ~80 µM
- effect as inducer on expression and/or activity of the isomerase (9,11 linoleate isomerase): No positive effect

Compound: O=C(O)c1cc[c]([Hg][Cl])cc1 [p-chloromercuribenzoate]
- inhibition of isomerase activity ([1]; 5 μM): not inhibited

Compound: CCCCCCCCCCCCCCCC(=O)O [palmitic acid]
- effect as inducer on expression and/or activity of the isomerase (9,11 linoleate isomerase): No positive effect

Compound: CCCCCC/C=C\CCCCCCCC(=O)O [palmitoleic acid]
- effect as inducer on expression and/or activity of the isomerase (9,11 linoleate isomerase): No positive effect

Compound: CCCCCCCCCCCCCCCCCC(=O)O [stearic acid]
- effect as inducer on expression and/or activity of the isomerase (9,11 linoleate isomerase): No positive effect

Compound: Triton X-100
- (cis,trans)-9,11-CLA formation on addition of nonionic detergent (L. reuteri PYR8): does not significantly increase
